In patent publication US6514942B1, “Methods and compositions for stimulating T-lymphocytes” (The Board of Regents, The University of Texas System, priority 1995, dated 2003):

What was measured:
Format in all cases: cell-based, human
[1] = tested on: C1R:A1 cells (HLA-A1 transfectants); assay: Ag specificity of the 41.CD8+ CTL line on peptide-pulsed targets
Protocol: (§1) FIG. 2A. Ag specificity of the 41.CD8^+ CTL line. C1R:A2 cells were pre-pulsed with either HER-2 peptides or control MUC-1 peptides before being incubated with effectors. The effector to target ratio was 10:1. C1R:A1 and C1R:A3 targets were pre-pulsed with the same peptides in the same conditions as C1R:A2 cells. Results for C1R:A1 and C1R:A3 show the difference between specific lysis of targets preincubated with peptides and control C1R:A1 and C1R:A3 targets. Specific lysis of control C1R:A1 and C1R:A3 cells was less than 10% at the same E:T ratio. Shown in FIG. 2A are results after 4 hrs' incubation.
Tumor cells and fibroblasts were labeled with 200 μCi of ^51Cr (Na^51CrO4; Amersham, Arlington Heights, Ill.) for 90 min at 37° C. (Ioannides et al., 1991). Lymphoblastoid cells and HLA-A2 transfectants were labeled overnight in RPMI-FCS, then washed three times and incubated with effector cells in RPMI-FCS in an incubator with 5%. […] When peptide recognition was determined, targets were incubated with 25 μM of peptides overnight during ^51Cr labeling or with 10 μM peptide for 2 h at 37° C. in RPMI-FCS then washed three times before being incubated with effector cells. […] After 4-5 h, 100 μl of supernatant was collected and counted. […] Percentage lysis was calculated from the formula: 100×[(E−S)/(T−S)], where E is experimental release, S is release in the absence of CTL, and T is release in 2 M HCl. […]

C1R:A2 cells = assay: as above; details: peptide-pulsed C1R:A2, E:T 10:1
Protocol: as §1
(§2) Tumor cells and fibroblasts were labeled with 200 μCi of ^51Cr (Na^51CrO4; Amersham, Arlington Heights, Ill.) for 90 min at 37° C. (Ioannides et al., 1991). Lymphoblastoid cells and HLA-A2 transfectants were labeled overnight in RPMI-FCS, then washed three times and incubated with effector cells in RPMI-FCS in an incubator with 5%. CO2 (Bednarek et al., 1991; Gammon et al., 1992). When peptide recognition was determined, targets were incubated with 25 μM of peptides overnight during ^51Cr labeling or with 10 μM peptide for 2 h at 37° C. in RPMI-FCS then washed three times before being incubated with effector cells. Separate controls for spontaneous and total lysis were made for each peptide-pulsed target (Ioannides et al., 1991; Bednarek et al., 1991; Gammon et al., 1992). After 4-5 h, 100 μl of supernatant was collected and counted. To determine maximum lysis in 20-h assays, plates were left undisturbed in the incubator and the supernatant was collected after overnight incubation. For cold target inhibition studies, C1R:A2 cells were preincubated with HER-2 or control peptides overnight, then washed and admixed with ^51Cr-labeled targets at 2:1 and 6:1 (cold:hot targets) ratios. Percentage lysis was calculated from the formula: 100×[(E−S)/(T−S)], where E is experimental release, S is release in the absence of CTL, and T is release in 2 M HCl.
These cultures were propagated and expanded by periodic cycles of restimulation with peptide-pulsed fresh autologous PBMC as antigen-presenting cells. After the fourth stimulation cells were gradually adapted to growth in RPMI-FCS by replacing 25% of the culture medium every 3 days with RPMI-FCS over a period of 2 weeks. CD3^+CD8^+CD4^− cells were isolated from bulk CTL cultures by positive selection on anti-CD8 mAb-coated culture flasks (AIS Micro CELLector, Applied Immune Sciences, Menlo Park, Calif.) as described (Letessier et al., 1991). Isolated CD8^+ cells were restimulated with HER-2 peptide-pulsed PBMC, either autologous or in some instances allogeneic that matched only HLA-A2 with the responding cells. […]

OVA-1, HER-2high = assay: Lysis of peptide pre-pulsed autologous tumor by CTL-TAL (HLA-A2- system); details: OVA-1 pre-pulsed with peptide
Protocol: as §2
(§3) To address whether these peptides interfere with tumor lysis by autologous tumor reactive CTL-TAL in HLA-A2^− systems, the lysis of OVA-1, HER-2^high (HLA-A1, 24, B8, 35, Cw4) and OVA-31, HER-2^high was determined by pre-pulsing with either C43 or as a control, C44 peptide (VS→II). Target lysis by CTL-1 was: OVA-1 (68%), K562 (18%), OVA-1 plus C43 (37%), and OVA-1 plus C44 (51%). […] However, C43 and C44 had no effect on lysis of OVA-31 by CTL-31.

OVA-31, HER-2high = assay: as above; details: OVA-31 pre-pulsed with peptide
Protocol: as §2, §3

Sequence | lysis of peptide pulsed versus control targets by 41.CD8+ CTL [1] | recognition by 41.CD8+ CTL line (C1R:A2 cells) | Target lysis by CTL-1 (OVA-1, HER-2high) | inhibition of lysis of OVA-1 by CTL-1 (OVA-1, HER-2high) | effect on lysis of OVA-31 by CTL-31 (OVA-31, HER-2high)
ELVSEFSRV [Peptide C84, HER-2:971-979 analog, Met(P9) substituted by Val] | failed to elicit a higher lysis of peptide pulsed than of control targets | recognized | – | – | –
RFRELVSEFSRMAR [Peptide C43, HER-2:968-981 14mer peptide] | failed to elicit a higher lysis of peptide pulsed than of control targets | recognized | 37% | 45% | no effect
